Assay results published in patent US8168667B2 (Galapagos NV, priority 2006, dated 2012).
Like-named read-outs stand apart in the source and are kept apart here.

Assays:
[1] = biological target: T1, human androgen receptor (hAR) (Homo sapiens, UniProt P10275); test: Functional response test: hAR transactivation (luciferase reporter) in HALP2 cells; assay type: cell-based; settings: for EC50: agonism, HALP2 cells (HeLa, hAR + ARE-luciferase), 20 hours at 37° C.
T1 sequence (P10275 1-920): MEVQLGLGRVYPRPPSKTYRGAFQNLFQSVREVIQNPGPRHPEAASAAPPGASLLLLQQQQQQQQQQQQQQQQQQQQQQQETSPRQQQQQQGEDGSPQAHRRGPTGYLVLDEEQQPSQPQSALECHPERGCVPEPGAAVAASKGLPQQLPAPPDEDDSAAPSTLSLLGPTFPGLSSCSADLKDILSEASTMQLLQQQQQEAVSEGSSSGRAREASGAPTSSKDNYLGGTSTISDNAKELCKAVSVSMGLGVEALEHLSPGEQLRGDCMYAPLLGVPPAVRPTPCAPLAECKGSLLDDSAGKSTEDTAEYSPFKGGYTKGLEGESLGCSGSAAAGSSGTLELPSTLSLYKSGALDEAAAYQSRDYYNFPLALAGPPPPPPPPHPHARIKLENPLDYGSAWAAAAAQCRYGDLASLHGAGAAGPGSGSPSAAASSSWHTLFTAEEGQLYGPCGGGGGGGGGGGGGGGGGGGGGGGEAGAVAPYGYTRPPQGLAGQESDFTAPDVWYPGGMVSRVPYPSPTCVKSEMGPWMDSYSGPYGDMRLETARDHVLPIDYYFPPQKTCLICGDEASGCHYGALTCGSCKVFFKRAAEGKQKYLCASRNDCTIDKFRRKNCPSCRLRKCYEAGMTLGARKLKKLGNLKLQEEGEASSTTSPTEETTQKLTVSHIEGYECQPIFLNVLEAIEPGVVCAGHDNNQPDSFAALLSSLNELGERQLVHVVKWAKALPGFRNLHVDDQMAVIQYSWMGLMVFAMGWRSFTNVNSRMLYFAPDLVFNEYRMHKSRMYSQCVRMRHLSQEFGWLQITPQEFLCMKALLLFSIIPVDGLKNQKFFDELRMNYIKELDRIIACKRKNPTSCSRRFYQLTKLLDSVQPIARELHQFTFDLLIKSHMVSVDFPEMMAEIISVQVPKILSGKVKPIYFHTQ
How it was run: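 HALP2 cells are HeLa cells stably transfected with CMV-driven hAR and a probasin ARE-luciferase reporter. They were seeded 24 h ahead, then exposed to compounds for 20 hours at 37° C in phenol red-free DMEM with 5% desteroided serum. Luciferase luminescence was measured after lysis; for antagonist mode, compounds were tested against increasing DHT concentrations.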

[2] = system: castrated immature young rats; test: Adapted model of Hershberger's test (levator ani and ventral prostate weight); assay type: in vivo, Sprague Dawley rats; settings: Rattus norvegicus, po, 96 h
Experimental: The selective modulating activity of the androgen receptor was tested in a model of castrated immature young rats. This model, which is widely recognised for evaluating the anabolic effects of androgen compounds on the muscles and on the genitalia, has been described by Hershberger et al. 1953 Proc. Soc. Expt. Biol. Med. 83:175.
The method is based on the measurement of the well-known effects of androgens on the growth of the muscles and the accessory male sex organs in animals, and also in men. The consequences of castration appear in the form of a rapid involution and atrophy of the prostate and the seminal vesicles and of the anus-lifting muscle (levator ani). This effect may be completely compensated by an exogeneous administration of androgen, in particular of testosterone. The model is thus used to determine the capacity of the tested molecules to maintain the weight of the accessory sex and muscle organs in immature castrated rats, and therefore their androgenic efficacy.
Immature young Sprague Dawley rats (4 to 5 weeks old) weighing approximately 140-160 g (Charles River, Les Oncins, FRANCE) were distributed randomly in various groups and were kept in an environment at 22±2° C. with an alternating day/night cycle of 12 hours and ad libitum access to food and drink.
On day 0, that is, seven days before commencement of the first treatment, the rats were weighed individually then anaesthetised with an intraperitoneal dose of Ketamine/xylazine (85/15 mg/kg, approximately 2 ml/kg). Each animal was then placed on a sterile field and the abdomen and the scrotum were disinfected with Betadine and 70% alcohol. In the case of the orchidectomised control animals (ORX), the testicles were removed via an incision in the middle of the scrotum. A sterile suture was then made to ligature the supra-testicular portion of the tissue prior to surgical section of each testicle. The groups of animals to be treated by the tested compounds were operated on in an identical manner. In the case of the intact control animals (SHAM), the testicles were similarly extracted and reintroduced delicately to their original location. The site of surgical intervention was then sutured using sterile suture thread, and the site was disinfected again by application of Betadine. Each animal was then kept under a sterile pad until it awoke, before being returned to its cage. The animals were kept in an environment at 22±2° C. with an alternating day/night cycle of 12 hours and ad libitum access to food and drink. The animals were treated with the molecules to be tested from post-surgery day 7 and until day 10 preceding sacrifice (day 11).
The rats were split into groups and treated daily from day 7 to day 10 under the conditions defined below: • 1. SHAM control group: Vehicle (0.5% aqueous methyl cellulose) administered per os. • 2. ORX control group: Vehicle (0.5% aqueous methyl cellulose) administered per os. • 3. Treated ORX group: The tested compounds were administered individually per os in suspension in the vehicle described above, in a dose of 30 mg/kg.
After treatment for 4 successive days, the animals were decapitated using a guillotine. The levator ani and the ventral prostate were removed and weighed individually. For comparing inter-experimental data, the weight of each organ was standardised and expressed in milligrammes per 100 g of the weight of the animal (W). For each organ, the average of the standardised weights of the ORX control group was fixed by definition at 0% and the average of the standardised weights of the SHAM control group was fixed by definition at 100%. The efficacy of each product was expressed as a percentage and calculated using the following formula: (Wtreated−WORX)/(WSHAM−WORX)×100 A subsequent ANOVA test was used for statistical analysis to identify the differences between groups.

[3] = read-out: anabolic protection efficacy with regard to levator ani
[4] = read-out: androgenic efficacy with regard to the prostate
[5] = antagonism, concentration which increases the EC50 of the DHT by a factor of 2, Schild regression, HALP2 cells

EC50 [1]	KSchild (nM) potency [1, 5]	Structure (SMILES)	KSchild (nM) potency [1]	further results
–	–	CN1C(=O)N(c2ccc(C#N)c(C(F)(F)F)c2)C(=O)C1(C)c1ccc(O)c(Cl)c1 (centres unmarked) [Example 173, 4-[4-(3-chloro-4-hydroxyphenyl)-3,4-dimethyl-2,5-dioxoimidazolidin-1-yl]-2-trifluoromethylbenzonitrile]	3 nM	melting point: 161.1 °C
–	–	CN1C(=O)N(c2ccc(C#N)c(C(F)(F)F)c2)C(=O)C1(CF)c1ccc(O)cc1 (centres unmarked) [Example 177, 4-[2,5-dioxo-4-fluoromethyl-4-(4-hydroxyphenyl)-3-methylimidazolidin-1-yl]-2-trifluoromethylbenzonitrile]	0.72 nM	inhibition in vivo at 30 mg/kg [2, 3]: 50 to 140%; inhibition in vivo at 30 mg/kg [2, 4]: 5 to 70%
–	–	COc1cc(N2C(=O)N(C)C(C)(c3ccc(O)cc3)C2=O)ccc1C#N (centres unmarked) [Example 9, 4-[3,4-dimethyl-2,5-dioxo-4-(4-hydroxyphenyl)imidazolidin-1-yl]-2-methoxybenzonitrile]	2.1 nM	inhibition in vivo at 30 mg/kg [2, 3]: 50 to 140%; inhibition in vivo at 30 mg/kg [2, 4]: 5 to 70%
–	–	COCN1C(=O)N(c2ccc(C#N)c(C(F)(F)F)c2)C(=O)C1(C)c1ccc(O)cc1 (centres unmarked) [Example 222, 4-[4-(4-hydroxyphenyl)-3-methoxymethyl-4-methyl-2,5-dioxoimidazolidin-1-yl]-2-trifluoromethylbenzonitrile]	–	inhibition in vivo at 30 mg/kg [2, 3]: 50 to 140%; inhibition in vivo at 30 mg/kg [2, 4]: 5 to 70%
–	–	CN1C(=O)N(c2ccc(C#N)c(C(F)(F)F)c2)C(=O)C1(CO)c1ccc(O)cc1 (centres unmarked) [Example 176, 4-[2,5-dioxo-4-hydroxymethyl-4-(4-hydroxyphenyl)-3-methyl-imidazolidin-1-yl]-2-trifluoromethylbenzonitrile]	1.34 nM	inhibition in vivo at 30 mg/kg [2, 3]: 50 to 140%; inhibition in vivo at 30 mg/kg [2, 4]: 5 to 70%
–	–	CN1C(=O)N(c2ccc(C#N)c(C(F)(F)F)c2)C(=O)C1(C)c1ccc(O)c(F)c1 (centres unmarked) [Example 172, 4-[4-(3-fluoro-4-hydroxyphenyl)-3,4-dimethyl-2,5-dioxoimidazolidin-1-yl]-2-trifluoromethylbenzonitrile]	8 nM	–
4 nM	3 nM	C=CCN1C(=O)N(c2ccc(Cl)c(Cl)c2)C(=O)C1(C)c1ccc(O)cc1 (centres unmarked) [Example 20, 1-(3,4-dichlorophenyl)-4-(4-hydroxyphenyl)-4-methyl-3-(2-propenyl)imidazolidine-2,5-dione]	–	–
69.3 nM	69.28 nM	O=C1C(c2ccc(O)cc2)N(CCCCO)C(=O)N1c1ccc(Cl)c(Cl)c1 (centres unmarked) [Example 132]	–	–
89.4 nM	89.44 nM	N#CCCN1C(=O)N(c2ccc(F)c(F)c2)C(=O)C1c1ccc(O)cc1 (centres unmarked) [Example 124]	–	–
8 nM	4.9 nM	CC1(c2ccc(O)cc2)C(=O)N(c2ccc(Cl)c(Cl)c2)C(=S)N1CCC#N (centres unmarked) [Example 42, 3-[1-(3,4-dichlorophenyl)-4-(4-hydroxyphenyl)-4-methyl-5-oxo-2-thioxoimidazolidin-3-yl]-propionitrile]	–	–
600 nM	600 nM	O=C1C(c2ccc(O)cc2)N(CCCCO)C(=O)N1c1cccc(C(F)(F)F)c1 (centres unmarked) [Example 136]	–	–
–	–	CN1C(=O)N(c2ccc(C#N)c3c2CCC3)C(=O)C1(C)c1ccc(O)cc1 (centres unmarked) [Example 33, 2,3-dihydro-7-[3,4-dimethyl-2,5-dioxo-4-(4-hydroxyphenyl)imidazolidin-1-yl]-4(1H)-indenenitrile]	0.78 nM	–
30 nM	30 nM	CC1(c2ccc(O)cc2)C(=O)N(c2ccc(Cl)c(Cl)c2)C(=O)N1CCO (centres unmarked) [Example 146]	–	–
–	–	CCOC(=O)CCN1C(=O)N(c2ccc(C#N)c(C(F)(F)F)c2)C(=O)C1c1ccc(O)cc1 (centres unmarked) [Example 74]	17.32 nM	–
–	–	COc1ccc(C2(C(F)(F)F)C(=O)N(c3ccc(C#N)c(C(F)(F)F)c3)C(=O)N2C)cc1 (centres unmarked) [Example 161, 4-[2,5-dioxo-4-(4-methoxyphenyl)-3-methyl-4-trifluoromethylimidazolidin-1-yl]-2-trifluoromethylbenzonitrile]	60 nM	–
490 nM	489.9 nM	O=C1C(c2ccc(O)cc2)N(CCO)C(=O)N1c1ccc(F)c(F)c1 (centres unmarked) [Example 140]	–	–
24.5 nM	24.49 nM	Cc1cc(Cl)ccc1N1C(=O)N(C)C(C)(c2ccc(O)cc2)C1=O (centres unmarked) [Example 28, 1-(4-chloro-2-methylphenyl)-3,4-dimethyl-4-(4-hydroxyphenyl)imidazolidine-2,5-dione]	–	–
–	–	CC1(c2ccc(O)cc2)C(=O)N(c2ccc(C#N)c(C(F)(F)F)c2)C(=O)N1CC(N)=O (centres unmarked) [Example 231, 4-[3-[(aminocarbonyl)methyl]-2,5-dioxo-4-(4-hydroxyphenyl)-4-methylimidazolidin-1-yl]-2-trifluoromethylbenzonitrile]	60 nM	–
–	–	CC12C(=O)N(c3ccc(C#N)c(C(F)(F)F)c3)C(=O)N1Cc1cc(O)ccc12 (centres unmarked) [Example 158, 4-[1,3-dioxo-7-hydroxy-9b-methyl-1,2,3,9b-tetrahydro-5H-imidazo[5,1-a]isoindol-2-yl]-2-trifluoromethylbenzonitrile]	30 nM	–
–	–	O=C1C(c2ccc(O)cc2)N(CCCCO)C(=O)N1c1ccc(F)c(C(F)(F)F)c1 (centres unmarked) [Example 135]	600 nM	–
–	–	CN1C(=O)N(c2ccc(C#N)c3c2CCCC3)C(=O)C1(C)c1ccc(O)cc1 (centres unmarked) [Example 34, 8-[3,4-dimethyl-2,5-dioxo-4-(4-hydroxyphenyl)imidazolidin-1-yl]-1,2,3,4-tetrahydro-5-naphthonitrile]	3.3 nM	–
2000 nM	2000 nM	O=C1C(c2ccc(O)cc2)N(Cc2ccsc2)C(=S)N1c1cccc(Cl)c1Cl (centres unmarked) [Example 17, 1-(2,3-dichlorophenyl)-4-(4-hydroxyphenyl)-3-[(thiophen-3-yl)methyl]-2-thioxo-imidazolidin-5-one]	–	–
245 nM	212.13 nM	N#CCCN1C(=O)N(c2ccc(F)c(Cl)c2)C(=O)C1c1ccc(O)cc1 (centres unmarked) [Example 127]	–	–
